Measurements reported in US8895738B2, “Mesoionic pyrido [1, 2-A] pyrimidine pesticides” (E I du Pont de Nemours and Company, priority 2010, dated 2014).
Where a name gives a salt, the structure may show the parent alone.

Experiments:
Type in all cases: in vivo
[1] = tested on: potato leafhopper (Empoasca fabae); assay: Test E: control of potato leafhopper on Soleil bean plant, contact and/or systemic; conditions: 144 h, assessed after 6 days, read-out: control efficacy: mortality; for mortality at 10 ppm: sprayed at 10 ppm; for mortality at 50 ppm: sprayed at 50 ppm; for mortality at 2 ppm: sprayed at 2 ppm
Procedure: For evaluating control of potato leafhopper (Empoasca fabae) through contact and/or systemic means, the test unit consisted of a small open container with a 5-6-day-old Soleil bean plant (primary leaves emerged) inside. White sand was added to the top of the soil and one of the primary leaves was excised prior to application.
Test compounds were formulated and sprayed at 250, 50, 10 and/or 2 ppm, and the tests were replicated three times as described for Test A. After spraying, the test units were allowed to dry for 1 h before they were post-infested with 5 potato leafhoppers (18-21-day-old adults). A black, screened cap was placed on the top of each test unit, and the test units were held for 6 days in a growth chamber at 24° C. and 70% relative humidity. Each test unit was then visually assessed for insect mortality.

[2] = tested on: corn planthopper (Peregrinus maidis); assay: Test D: control of corn planthopper on maize plant, contact and/or systemic; conditions: 144 h, assessed after 6 days, read-out: control efficacy: mortality; for mortality at 10 ppm: sprayed at 10 ppm; for mortality at 50 ppm: sprayed at 50 ppm; for mortality at 2 ppm: sprayed at 2 ppm; for mortality at 250 ppm: sprayed at 250 ppm
Procedure: For evaluating control of corn planthopper (Peregrinus maidis) through contact and/or systemic means, the test unit consisted of a small open container with a 3-4-day-old maize plant (spike) inside. White sand was added to the top of the soil prior to application. Test compounds were formulated and sprayed at 250, 50, 10 and/or 2 ppm, and replicated three times as described for Test A. After spraying, the test units were allowed to dry for 1 h before they were post-infested with ˜15-20 nymphs (18 to 21 day old) by sprinkling them onto the sand with a salt shaker. A black, screened cap was placed on the top of each test unit, and the test units were held for 6 days in a growth chamber at 22-24° C. and 50-70% relative humidity. Each test unit was then visually assessed for insect mortality.

[3] = tested on: green peach aphid (Myzus persicae); assay: Test B: control of green peach aphid on radish plant, contact and/or systemic; conditions: 144 h, assessed after 6 days; for mortality at 50 ppm: sprayed at 50 ppm
Description: For evaluating control of green peach aphid (Myzus persicae) through contact and/or systemic means, the test unit consisted of a small open container with a 12-15-day-old radish plant inside. This was pre-infested by placing on a leaf of the test plant 30-40 aphids on a piece of leaf excised from a culture plant (cut-leaf method). The aphids moved onto the test plant as the leaf piece desiccated. After pre-infestation, the soil of the test unit was covered with a layer of sand.
Test compounds were formulated and sprayed at 250, 50 and/or 10 ppm as described for Test A. The applications were replicated three times. After spraying of the formulated test compound, each test unit was allowed to dry for 1 h and then a black, screened cap was placed on top. The test units were held for 6 days in a growth chamber at 19-21° C. and 50-70% relative humidity. Each test unit was then visually assessed for insect mortality.

[4] = tested on: rice brown planthopper (Nilaparvata lugens); assay: Test H: control of rice brown planthopper on rice plant; conditions: 120 h, assessed after 5 days, read-out: control efficacy: mortality; for mortality at 2 ppm: sprayed at 2 ppm; for mortality at 10 ppm: sprayed at 10 ppm
Procedure: (§1) For evaluating control of rice brown planthopper (Nilaparvata lugens) through contact and/or systemic means, the test unit consisted of a plastic pot containing a 13-cm-tall rice plant covered with steel wire mesh (50 mesh) supported by a wire frame. A small amount of sand was added to form a good seal between the bottom of the wire mesh, the soil surface and the top edge of the plastic pot.
(§2) Test compounds were formulated and sprayed at 10, 2 and/or 0.4 ppm, and the tests were replicated three times in a manner similar to the one described for Test A. After spraying, the test units were allowed to dry for 2 h before they were post-infested with 10 brown planthoppers (3rd instar nymphs, 7-9 days post-hatch). After 5 days, each test unit was visually assessed for insect mortality.

[5] = tested on: rice green leafhopper (Nephotettix virescens); assay: Test G: control of rice green leafhopper on rice plant; conditions: 120 h, assessed after 5 days, read-out: control efficacy: mortality; for mortality at 10 ppm: sprayed at 10 ppm; for mortality at 50 ppm: sprayed at 50 ppm
Procedure: as §1, with “green leafhopper (Nephotettix virescens)” for “brown planthopper (Nilaparvata lugens)”
as §2, with “50, 10 and/or” for “10,”, “2” for “2 and/or 0.4”, “green leafhoppers” for “brown planthoppers”

[6] = tested on: cotton melon aphid (Aphis gossypii); assay: Test C: control of cotton melon aphid on cotton plant, contact and/or systemic; conditions: for mortality at 50 ppm: sprayed at 50 ppm
Description: For evaluating control of cotton melon aphid (Aphis gossypii) through contact and/or systemic means, the test unit consisted of a small open container with a 6-7-day-old cotton plant inside. This was pre-infested with 30-40 insects on a piece of leaf according to the cut-leaf method described for Test B, and the soil of the test unit was covered with a layer of sand.
Test compounds were formulated and sprayed at 250 and/or 50 ppm as described for Test B. The applications were replicated three times. After spraying, the test units were maintained in a growth chamber and then visually rated as described for […].

O=c1c(-c2ccc(F)cc2F)c([O-])[n+](Cc2cncnc2)c2ccccn12 [Compound 6, 3-(2,4-difluorophenyl)-2-hydroxy-4-oxo-1-(5-pyrimidinylmethyl)-4H-pyrido[1,2-a]pyrimidinium inner salt]
≥ 80%: mortality at 10 ppm [1] | mortality at 50 ppm [1]

O=c1c(-c2cc(Cl)c(F)c(Cl)c2)c([O-])[n+](Cc2cncnc2)c2ccccn12 [Compound 17, 3-(3,5-dichloro-4-fluorophenyl)-2-hydroxy-4-oxo-1-(5-pyrimidinylmethyl)-4H-pyrido[1,2-a]pyrimidinium inner salt]
≥ 80%: mortality at 10 ppm [2] | mortality at 50 ppm [2]

Cc1cc(-c2ccc(C#N)cc2C)cc(-c2c([O-])[n+](Cc3cncnc3)c3ccccn3c2=O)c1 [Compound 18, 3-(4′-cyano-5,2′-dimethyl[1,1′-biphenyl]-3-yl)-2-hydroxy-4-oxo-1-(5-pyrimidinylmethyl)-4H-pyrido[1,2-a]pyrimidinium inner salt]
≥ 80%: mortality at 50 ppm [1] | mortality at 50 ppm [2]

O=c1c(-c2cccc(Br)c2)c([O-])[n+](Cc2cncnc2)c2ccccn12 [Compound 8]
≥ 80%: mortality at 50 ppm [1]

O=c1c(-c2cc(Cl)cc(Cl)c2)c([O-])[n+](Cc2cncnc2)c2ccccn12 [Compound 16, 3-(3,5-dichlorophenyl)-2-hydroxy-4-oxo-1-(5-pyrimidinylmethyl)-4H-pyrido[1,2-a]pyrimidinium inner salt]
≥ 80%: mortality at 10 ppm [2] | mortality at 50 ppm [2] | mortality at 50 ppm [3]

O=c1c(-c2ccc(F)cc2)c([O-])[n+](Cc2cncnc2)c2ccccn12 [Compound 2, 3-(4-fluorophenyl)-2-hydroxy-4-oxo-1-(5-pyrimidinylmethyl)-4H-pyrido[1,2-a]pyrimidinium inner salt]
≥ 80%: mortality at 10 ppm [1] | mortality at 50 ppm [1] | mortality at 2 ppm [2] | mortality at 10 ppm [2] | mortality at 50 ppm [2] | mortality at 250 ppm [2] | mortality at 2 ppm [4] | mortality at 10 ppm [4] | mortality at 10 ppm [5] | mortality at 50 ppm [5]

COc1ccccc1-c1c([O-])[n+](Cc2cncnc2)c2ccccn2c1=O [Compound 4, 2-hydroxy-3-(2-methoxyphenyl)-4-oxo-1-(5-pyrimidinylmethyl)-4H-pyrido[1,2-a]pyrimidinium inner salt]
≥ 80%: mortality at 50 ppm [1] | mortality at 50 ppm [2]

O=c1c(-c2ccccc2)c([O-])[n+](Cc2cncnc2)c2ccccn12 [Compound 1, 2-hydroxy-4-oxo-3-phenyl-1-(5-pyrimidinylmethyl)-4H-pyrido[1,2-a]pyrimidinium inner salt]
≥ 80%: mortality at 2 ppm [1] | mortality at 10 ppm [1] | mortality at 50 ppm [1] | mortality at 250 ppm ([1]; sprayed at 250 ppm) | mortality at 10 ppm [2] | mortality at 50 ppm [2] | mortality at 250 ppm [2] | mortality at 250 ppm ([6]; sprayed at 250 ppm) | mortality at 50 ppm [3] | mortality at 250 ppm ([3]; sprayed at 250 ppm)

O=c1c(-c2cc(Cl)cc(C(F)(F)F)c2)c([O-])[n+](Cc2cncnc2)c2ccccn12 [Compound 15, 3-[3-chloro-5-(trifluoromethyl)phenyl]-2-hydroxy-4-oxo-1-(5-pyrimidinylmethyl)-4H-pyrido[1,2-a]pyrimidinium inner salt]
≥ 80%: mortality at 2 ppm [1] | mortality at 10 ppm [1] | mortality at 50 ppm [1] | mortality at 2 ppm [2] | mortality at 10 ppm [2] | mortality at 50 ppm [2] | mortality at 10 ppm [4] | mortality at 10 ppm ([3]; sprayed at 10 ppm) | mortality at 50 ppm [3]

O=c1c(-c2ccccc2F)c([O-])[n+](Cc2cncnc2)c2ccccn12 [Compound 9, 3-(2-fluorophenyl)-2-hydroxy-4-oxo-1-(5-pyrimidinylmethyl)-4H-pyrido[1,2-a]pyrimidinium inner salt]
≥ 80%: mortality at 10 ppm [1] | mortality at 50 ppm [1] | mortality at 50 ppm [2] | mortality at 10 ppm [4]

O=c1c(-c2cccc(OC(F)(F)F)c2)c([O-])[n+](Cc2cncnc2)c2ccccn12 [Compound 7, 2-hydroxy-4-oxo-1-(5-pyrimidinylmethyl)-3-[3-(trifluoromethoxy)phenyl]-4H-pyrido[1,2-a]pyrimidinium inner salt]
≥ 80%: mortality at 2 ppm [1] | mortality at 10 ppm [1] | mortality at 50 ppm [1] | mortality at 0.4 ppm ([4]; sprayed at 0.4 ppm) | mortality at 2 ppm [4] | mortality at 10 ppm [4] | mortality at 50 ppm [6] | mortality at 2 ppm ([5]; sprayed at 2 ppm) | mortality at 10 ppm [5] | mortality at 50 ppm [5]

COc1cccc(-c2c([O-])[n+](Cc3cncnc3)c3ccccn3c2=O)c1 [Compound 5, 2-hydroxy-3-(3-methoxyphenyl)-4-oxo-1-(5-pyrimidinylmethyl)-4H-pyrido[1,2-a]pyrimidinium inner salt]
≥ 80%: mortality at 10 ppm [1] | mortality at 50 ppm [1] | mortality at 10 ppm [2] | mortality at 50 ppm [2]

Cc1cccc(-c2c([O-])[n+](Cc3cncnc3)c3ccccn3c2=O)c1 [Compound 11, 2-hydroxy-3-(3-methylphenyl)-4-oxo-1-(5-pyrimidinylmethyl)-4H-pyrido[1,2-a]pyrimidinium inner salt]
≥ 80%: mortality at 10 ppm [1] | mortality at 50 ppm [1] | mortality at 10 ppm [2] | mortality at 50 ppm [2] | mortality at 10 ppm [4] | mortality at 10 ppm [5] | mortality at 50 ppm [5]

O=c1c(-c2cc(C(F)(F)F)ccc2F)c([O-])[n+](Cc2cncnc2)c2ccccn12 [Compound 10, 3-[2-fluoro-5-(trifluoromethyl)phenyl]-2-hydroxy-4-oxo-1-(5-pyrimidinylmethyl)-4H-pyrido[1,2-a]pyrimidinium inner salt]
≥ 80%: mortality at 50 ppm [1] | mortality at 10 ppm [2] | mortality at 50 ppm [2] | mortality at 250 ppm [2] | mortality at 2 ppm [4] | mortality at 10 ppm [4] | mortality at 10 ppm [5] | mortality at 50 ppm [5]

O=c1c(-c2ccc(F)c(C(F)(F)F)c2)c([O-])[n+](Cc2cncnc2)c2ccccn12 [Compound 12, 3-[4-fluoro-3-(trifluoromethyl)phenyl]-2-hydroxy-4-oxo-1-(5-pyrimidinylmethyl)-4H-pyrido[1,2-a]pyrimidinium inner salt]
≥ 80%: mortality at 10 ppm [1] | mortality at 50 ppm [1] | mortality at 10 ppm [2] | mortality at 50 ppm [2] | mortality at 10 ppm [4] | mortality at 50 ppm [6] | mortality at 50 ppm [5]

O=c1c(-c2cccc(Cl)c2)c([O-])[n+](Cc2cncnc2)c2ccccn12 [Compound 19, 3-(3-chlorophenyl)-2-hydroxy-4-oxo-1-(5-pyrimidinylmethyl)-4H-pyrido[1,2-a]pyrimidinium inner salt]
≥ 80%: mortality at 10 ppm [1] | mortality at 50 ppm [1] | mortality at 10 ppm [2] | mortality at 50 ppm [2] | mortality at 50 ppm [3]
